Laboratory results published in patent US5958950A, “Benzimidazole compounds useful for the treatment of inflammatory disease, atherosclerosis, restenosis or inhibiting lipoxygenase” (Warner-Lambert Company, priority 1998, dated 1999).

Biological target: T1, rabbit reticulocyte 15-LO (Oryctolagus cuniculus, UniProt P12530)
T1 construct: rabbit reticulocyte 15-LO; from tissue; host or cells: rabbit reticulocytes
T1 sequence (P12530 1-663): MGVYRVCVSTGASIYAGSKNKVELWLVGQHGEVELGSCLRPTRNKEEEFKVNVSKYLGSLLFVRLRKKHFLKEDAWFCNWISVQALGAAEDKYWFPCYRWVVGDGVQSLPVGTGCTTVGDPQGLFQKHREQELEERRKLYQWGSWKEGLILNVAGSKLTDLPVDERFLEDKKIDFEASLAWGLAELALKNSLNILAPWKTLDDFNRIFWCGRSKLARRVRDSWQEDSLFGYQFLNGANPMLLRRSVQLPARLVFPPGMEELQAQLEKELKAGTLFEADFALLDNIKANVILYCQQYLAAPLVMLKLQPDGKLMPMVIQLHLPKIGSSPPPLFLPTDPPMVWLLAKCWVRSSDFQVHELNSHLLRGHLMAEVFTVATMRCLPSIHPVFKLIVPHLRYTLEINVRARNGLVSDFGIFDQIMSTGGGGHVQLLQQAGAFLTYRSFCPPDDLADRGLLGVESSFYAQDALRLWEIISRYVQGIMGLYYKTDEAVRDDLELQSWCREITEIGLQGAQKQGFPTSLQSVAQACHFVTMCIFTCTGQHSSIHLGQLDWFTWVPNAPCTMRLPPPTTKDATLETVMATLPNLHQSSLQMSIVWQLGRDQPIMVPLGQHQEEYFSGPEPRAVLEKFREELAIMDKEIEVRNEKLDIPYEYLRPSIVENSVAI
Assay: 15-Lipoxygenase Assay: inhibition of 15-LO with linoleic acid as substrate, HPLC method of Auerbach et al.
Type: biochemical
Conditions: HPLC method; incubation at 4° C. for 10 minutes; read-out: concentration of compounds required to inhibit 50% of the activity of 15-LO (IC50)
Description: The compounds described above are effective inhibitors of 15-LO when evaluated in standard assays routinely utilized to measure 15-LO activity. Specifically, representative compounds were evaluated by the methods described by Auerbach, et al., Analytical Biochemistry, 1992; 201:375-380.Two in vitro assays were utilized, both utilizing rabbit reticulocyte 15-LO, and linoleic acid as substrate, to enzymatically produce a peroxide oxidation product known as 13(S)-HPODE. N-Benzoyl leucomethylene blue was utilized as a calorimetric reagent for detection and quantification of the peroxide formation. Also, HPLC was utilized to quantify the oxidation following incubation at 4° C. for 10 minutes.
The 15-LO inhibitory activity of representative compounds is presented in Table I. The data column gives the concentration of compounds required to inhibit 50% of the activity of 15-LO (IC50) when measured by the HPLC method of Auerbach, et al. [drawing 10] Wherein W, X, Y and Z are C--H and R1 is hydrogen.

Structure (SMILES) | IC50
c1ccc(-c2csc(-c3nc4ccccc4[nH]3)n2)nc1 [Example 1] | 360 nM
Clc1ccc(-c2csc(-c3nc4ccccc4[nH]3)n2)cc1 [Example 2] | 620 nM
Fc1ccc(-c2csc(-c3nc4ccccc4[nH]3)n2)cc1 [Example 3] | 189 nM
Clc1ccc(Cl)c(-c2csc(-c3nc4ccccc4[nH]3)n2)c1 [Example 5] | 207 nM
c1ccc(-c2csc(-c3nc4ccccc4[nH]3)n2)cc1 [Example 6, 2-(4-Phenyl-thiazol-2-yl)-1H-benzoimidazole] | 115 nM
c1csc(-c2csc(-c3nc4ccccc4[nH]3)n2)c1 [Example 7] | 96 nM
COc1cccc(-c2csc(-c3nc4ccccc4[nH]3)n2)c1 [Example 8, 2-[4-(3-Methoxy-phenyl)-thiazol-2-yl]-1H-benzoimidazole] | 500 nM
COc1ccccc1-c1csc(-c2nc3ccccc3[nH]2)n1 [Example 9, 2-[4-(2-Methoxy-phenyl)-thiazol-2-yl]-1H-benzoimidazole] | 125 nM
COc1ccc(-c2csc(-c3nc4ccccc4[nH]3)n2)cc1 [Example 10, 2-[4-(4-Methoxy-phenyl)-thiazol-2-yl]-1H-benzoimidazole] | 1650 nM
c1ccc(-c2ccc(-c3csc(-c4nc5ccccc5[nH]4)n3)cc2)cc1 [Example 11, 2-(4-Biphenyl-4-yl-thiazol-2-yl)-1H-benzoimidazole] | > 10000 nM
Oc1ccc(-c2csc(-c3nc4ccccc4[nH]3)n2)cc1 [Example 12, 4-[2-(1H-Benzoimidazol-2-yl)-thiazol-4-yl]-phenol] | > 2500 nM
Oc1ccc(-c2csc(-c3nc4ccccc4[nH]3)n2)cc1O [Example 13, 4-[2-(1H-Benzoimidazol-2-yl)-thiazol-4-yl]-benzene-1,2-diol] | > 2500 nM
COc1ccc(OC)c(-c2csc(-c3nc4ccccc4[nH]3)n2)c1 [Example 15, 2-[4-(2,5-Dimethoxy-phenyl)-thiazol-2-yl]-1H-benzoimidazole] | 390 nM
COc1cccc(OC)c1-c1csc(-c2nc3ccccc3[nH]2)n1 [Example 16, 2-[4-(2,6-Dimethoxy-phenyl)-thiazol-2-yl]-1H-benzoimidazole] | > 10000 nM
Cc1ccccc1-c1csc(-c2nc3ccccc3[nH]2)n1 [Example 19, 2-(4-o-Tolyl-thiazol-2-yl)-1H-benzoimidazole] | 330 nM
Clc1cccc(-c2csc(-c3nc4ccccc4[nH]3)n2)c1 [Example 20, 2-[4-(3-Chloro-phenyl)-thiazol-2-yl]-1H-benzoimidazole] | 200 nM
Brc1ccc(-c2csc(-c3nc4ccccc4[nH]3)n2)cc1 [Example 21, 2-[4-(4-Bromo-phenyl)-thiazol-2-yl]-1H-benzoimidazole] | 460 nM
O=C1c2ccccc2C(=O)N1Cc1csc(-c2nc3ccccc3[nH]2)n1 [Example 25, 2-[2-(1H-Benzoimidazole-2yl)-thiazol-4-ylmethyl]-isoindole-1,3-dione] | > 10000 nM
Brc1sc(-c2nc3ccccc3[nH]2)nc1-c1ccccc1 [Example 27, 2-(5-Bromo-4-phenyl-thiazol-2-yl)-1H-benzoimidazole] | 773 nM
O=C(O)c1sc(-c2nc3ccccc3[nH]2)nc1-c1ccccc1 [Example 29, 2-(lH-Benzoimidazol-2-yl)-4-phenyl-thiazole-5-carboxylic acid] | > 10000 nM
O=C(NCCCN1CCCCC1)c1csc(-c2nc3ccccc3[nH]2)n1 [Example 32, 2-(1H-Benzoimidazol-2-yl)-thiazole-4-carboxylic acid (3-piperidin-1-yl-propyl)-amide] | > 10000 nM
Oc1nc(-c2nc3ccccc3[nH]2)sc1-c1ccccc1 [Example 36, 2-(1H-Benzoimidazol-2-yl)-5-phenyl-thiazol-4-ol] | > 10000 nM

Same assay, conditions: marked (P), not explained; read-out: IC50 (P)

Structure (SMILES) | IC50
Oc1ccccc1-c1csc(-c2nc3ccccc3[nH]2)n1 [Example 17, 2-[2-(1H-Benzoimidazol-2-yl)-thiazol-4-yl]-phenol] | 40 nM
c1ccc2[nH]c(-c3nc(-c4ccncc4)cs3)nc2c1 [Example 37] | 540 nM

Same assay, conditions: marked (Q), not explained; read-out: IC50 (Q)

Structure (SMILES) | IC50
Oc1ccccc1-c1csc(-c2nc3ccccc3[nH]2)n1 [Example 17, 2-[2-(1H-Benzoimidazol-2-yl)-thiazol-4-yl]-phenol] | 80 nM
c1ccc2[nH]c(-c3nc(-c4ccncc4)cs3)nc2c1 [Example 37] | 810 nM

Same assay, conditions: read-out: 15-LO inhibitory activity, % @ 10 μM

Structure (SMILES) | inhibition at 10 µM
Oc1ccc(Br)cc1-c1csc(-c2nc3ccccc3[nH]2)n1 [Example 14, 2-[2-(1H-Benzoimidazol-2-yl)-thiazol-4-yl]-4-bromo-phenol] | 91.3%
Cc1ccc(-c2csc(-c3nc4ccccc4[nH]3)n2)cc1 [Example 18, 2-(4-p-Tolyl-thiazol-2-yl)-1H-benzoimidazole] | 71.6%
CCOC(=O)c1sc(-c2nc3ccccc3[nH]2)nc1-c1ccccc1 [Example 28, 2-(1H-Benzoimidazol-2-yl)-4-phenyl-thiazole-5-carboxylic acid ethyl ester] | 69%
CCOC(=O)c1csc(-c2nc3ccccc3[nH]2)n1 [Example 30, 2-(1H-Benzoimidazol-2-yl)-thhiazole-4-carboxylic acid ethyl ester] | 25%
O=C(O)c1csc(-c2nc3ccccc3[nH]2)n1 [Example 31, 2-(1H-Benzoimidazol-2-yl)-thiazole-4-carboxylic acid] | 1.38%
O=C(Nc1ccccc1)c1csc(-c2nc3ccccc3[nH]2)n1 [Example 33, 2-(1H-Benzoimidazol-2-yl)-thiazole-4-carboxylic acid phenylamide] | 25.1%
O=C(Nc1sc(-c2nc3ccccc3[nH]2)nc1-c1ccccc1)OCc1ccccc1 [Example 34, [2-(1H-Benzoimidazol-2-yl)-4-phenyl-thiazol-5-yl]-carbamic acid benzyl ester] | 89.2%
N#Cc1cccc(-c2csc(-c3nc4ccccc4[nH]3)n2)c1 [Example 35, 3-[2-(1H-Benzoimidazol-2-yl)-thiazol-4-yl]-benzonitrile] | 45%
